Among the data in the NIST ThermoML archive (doi:10.1021/je060210c) are mass density and speed of sound values, retold here.

The conditions of this data set: 101.33 kPa, Liquid; for speed of sound: Sing-around technique in a fixed-path interferometer.

Numbers after ± are expanded uncertainties.

A word on the mass density: it is the mass of a sample divided by its volume. The speed of sound is the propagation velocity of pressure waves in the medium. With `CCCCCO` [pentan-1-ol], the mass density reads like this: (283.15 K) 821.79 ± 0.92 kg/m3; (298.15 K) 810.83 ± 0.95 kg/m3; (313.15 K) 799.8 ± 0.98 kg/m3. The speed of sound is, setting by setting: (283.15 K) 1325.9 ± 1.3 m/s; (298.15 K) 1274.1 ± 1.2 m/s; (313.15 K) 1225.5 ± 1.2 m/s.
With `C=C1CCC2CC1C2(C)C` (stereo not drawn) [β-pinene], the mass density is reported as 879.07 ± 0.77 kg/m3 (283.15 K), 867.11 ± 0.8 kg/m3 (298.15 K) and 854.87 ± 0.83 kg/m3 (313.15 K). For the same molecule, the speed of sound runs as follows: (283.15 K) 1354.3 ± 1.3 m/s; (298.15 K) 1295.6 ± 1.3 m/s; (313.15 K) 1236.3 ± 1.2 m/s.
On to `CCCC(C)O` (stereo not drawn) [pentan-2-ol], for which the mass density runs as follows: (283.15 K) 816.77 ± 1.9 kg/m3; (298.15 K) 804.97 ± 1.9 kg/m3; (313.15 K) 792.42 ± 2 kg/m3. The speed of sound was 1286.7 ± 2.1 m/s (283.15 K), 1232.6 ± 2.1 m/s (298.15 K) and 1168.1 ± 2.1 m/s (313.15 K).
